Assay results from EP4737449A1 (Changchun Genescience Pharmaceutical Co., Ltd., priority 2023, dated 2025).

These molecules were tested against T1, p53-Y220C mutant protein (Homo sapiens, UniProt P04637, Y220C) (assay: In vitro DNA binding activity assay (TR-FRET)). Conditions: concentration required to increase the binding activity of protein to DNA by 50%.
T1 construct: The recombinant Y220C p53 DBD protein with his-tag
Assay type: biochemical
Description: The activity of the compound to modulate the binding of the p53-Y220C mutant protein to DNA was detected using TR-FREt (Time-Resolved Fluorescence Resonance Energy Transfer). The recombinant Y220C p53 DBD protein with his-tag and the DNA sequence with biotin label were prepared firstly. Donor Eu(Europium)-SA(Streptavidin) can be bound to the DNA sequence through biotin, receptor for his antibody attached to alphaphycocyanin(APC, allophycocyanin), and his antibody can be bound to the Y220C p53 DBD protein with his-tag. When exposed to an excitation light with a wavelength of 340 nm, the donor Eu(Europium)-SA(Streptavidin) can emit fluorescence with a wavelength of 615 nm. If the donor and the receptor are close to each other, the donor will transfer part of the energy to the receptor and produce fluorescence with a wavelength of 665 nm. […] If there is no interaction, only 615 nm fluorescence is produced. • 1) Experimental steps • a. Adding 4 µL of dilute compound solution to each well of a 384-well microplate; • a. Adding 4 µL of 4X P53 working solution to each well of the 384-well microplate; • c. Sealing the 384-well microplate and equilibrating the system at room temperature for 60 min; • d. Adding 4 µl of biotin DNA solution to the 384-well microplate; • e. Adding 4 µl of 4X test solution (MAb Anti-6His-Eu and streptavidin-d2) to each well of the 384-well microplate; • f. Incubating overnight in the dark; and • g. Reading data of 665 nm and 615 nm wavelengths on the BMG multifunctional microplate reader. • 2) Data analysis • a. Calculating the ratio for each well (Ratio665 nm/615 nm-Ratiobackground); • b. Calculating the activity percentage (%activity) as follows: C = (Ave_Ac−Ave_Ba)/(Ave_Dc−Ave_Bd) [formula] R data = (A−Ave_Ba−CD)/(D−Ave_Bd)*(Ave_Dc−Ave_Bd) [formula] % Activity = R data/Ave_VC*100 [formula] • A: Fluorescence intensity of the sample at 665 nm; D: Fluorescence intensity of the sample at 615 nm; • Ba: Background fluorescence intensity of the culture plate at 665 nm; Bd: Background fluorescence intensity of the culture plate at 615 nm; • Dc: Background fluorescence intensity of HIS-E at 615 nm; Ac: Background fluorescence intensity of streptavidin-d2 at 665 nm); and • c. Calculating SC150 and plotting dose-effect curve
Compared to the absence of the compound of the present invention, the activation percentage of binding of the p53 mutant protein to DNA in the presence of the compound of the present invention is expressed as SC150, which indicates the concentration of the compound required to increase the DNA binding activity of the p53 mutant protein by 50%. The SC150 is calculated using Prism™.

| SMILES | SC150 |
| --- | --- |
| CN1CC[C@@H](Nc2cccc3c(CC(F)(F)F)c(C#CCNC(=O)c4cn(C(C)(C)C)nn4)nn23)[C@@H](F)C1 [Compound 142, 1-tert-butyl-N-[3-(7-{[(3S,4R)-3-fluoro-1-methylpiperidin-4-yl]amino}-3-(2,2,2-trifluoroethyl)pyrazolo[1,5-a]pyridin-2-yl)prop-2-yn-1-yl]-1H-1,2,3-triazole-4-carboxamide] | 29 nM |
| CN1CC[C@@H](Nc2cccc3c(CC(F)(F)F)c(C#CCNC(=O)c4nnn(C(C)(C)C)n4)nn23)[C@@H](F)C1 [Compound 145, 2-tert-butyl-N-[3-(7-{[(3S,4R)-3-fluoro-1-methylpiperidin-4-yl]amino}-3-(2,2,2-trifluoroethyl)pyrazolo[1,5-a]pyridin-2-yl)prop-2-yn-1-yl]-2H-tetrazole-5-carboxamide] | 50 nM |
| CN1CC[C@@H](Nc2cccc3c(CC(F)(F)F)c(C#CCNC(=O)c4cnn(C(C)(C)C(F)(F)F)c4)nn23)[C@@H](F)C1 [Compound 148, N-[3-(7-{[(3S,4R)-3-fluoro-1-methylpiperidin-4-yl]amino}-3-(2,2,2-trifluoroethyl)pyrazolo[1,5-a]pyridin-2-yl)prop-2-yn-1-yl]-1-(1,1,1-trifluoro-2-methylprop-2-yl)-1H-pyrazole-4-carboxamide] | 27 nM |
| Cc1ccc(C(=O)NCC#Cc2nn3c(N[C@@H]4CCN(C)C[C@@H]4F)cccc3c2CC(F)(F)F)cc1 [Compound 160, N-[3-(7-{[(3S,4R)-3-fluoro-1-methylpiperidin-4-yl]amino}-3-(2,2,2-trifluoroethyl)pyrazolo[1,5-a]pyridin-2-yl)prop-2-yn-1-yl]-4-methylbenzamide] | 84 nM |
| CN1CC[C@@H](Nc2cccc3c(CC(F)(F)F)c(C#CCNC(=O)c4cnn(C(C)(C)CF)c4)nn23)[C@@H](F)C1 [Compound 234, N-[3-(7-{[(3S,4R)-3-fluoro-1-methylpiperidin-4-yl]amino}-3-(2,2,2-trifluoroethyl)pyrazolo[1,5-a]pyridin-2-yl)prop-2-yn-1-yl]-1-(1-fluoro-2-methylpropan-2-yl)-1H-pyrazole-4-carboxamide] | 21 nM |
| CN1CC[C@@H](Nc2cccc3c(CC(F)(F)F)c(C#CCNC(=O)C4C5COCC54)nn23)[C@@H](F)C1 (stereo partly drawn) [Compound 240, N-[3-(7-{[(3S,4R)-3-fluoro-1-methylpiperidin-4-yl]amino}-3-(2,2,2-trifluoroethyl)pyrazolo[1,5-a]pyridin-2-yl)prop-2-yn-1-yl]-3-oxabicyclo[3.1.0]hexane-6-carboxamide] | 75 nM |
| CN1CC[C@@H](Nc2cccc3c(CC(F)(F)F)c(C#CCNC(=O)C4CC45CC5)nn23)[C@@H](F)C1 (stereo partly drawn) [Compound 241, N-[3-(7-{[(3S,4R)-3-fluoro-1-methylpiperidin-4-yl]amino}-3-(2,2,2-trifluoroethyl)pyrazolo[1,5-a]pyridin-2-yl)prop-2-yn-1-yl]spiro[2.2]pentane-1-carboxamide] | 82 nM |
| CN1CC[C@@H](Nc2cccc3c(CC(F)(F)F)c(C#CCNC(=O)c4cnn(C(C)(C)C#N)c4)nn23)[C@@H](F)C1 [Compound 248, 1-(1-cyano-1-methylethyl)-N-[3-(7-{[(3S,4R)-3-fluoro-1-methylpiperidin-4-yl]amino}-3-(2,2,2-trifluoroethyl)pyrazolo[1,5-a]pyridin-2-yl)prop-2-yn-1-yl]-1H-pyrazole-4-carboxamide] | 14 nM |
| CN1CC[C@@H](Nc2cccc3c(CC(F)(F)F)c(C#CCNC(=O)c4cnn(CC#N)c4)nn23)[C@@H](F)C1 [Compound 249, 1-cyanomethyl-N-[3-(7-{[(3S,4R)-3-fluoro-1-methylpiperidin-4-yl]amino}-3-(2,2,2-trifluoroethyl)pyrazolo[1,5-a]pyridin-2-yl)prop-2-yn-1-yl]-1H-pyrazole-4-carboxamide] | 17 nM |

More lines, now with the values ahead:

| SC150 | SMILES |
| --- | --- |
| 40 nM | CN1CC[C@@H](Nc2cccc3c(CC(F)(F)F)c(C#CCNC(=O)c4ccc(=O)n(C)c4)nn23)[C@@H](F)C1 [Compound 265, N-[3-(7-{[(3S,4R)-3-fluoro-1-methylpiperidin-4-yl]amino}-3-(2,2,2-trifluoroethyl)pyrazolo[1,5-a]pyridin-2-yl)prop-2-yn-1-yl]-1-methyl-6-oxo-1,6-dihydropyridine-3-carboxamide] |
| 46 nM | COc1ccc(C(=O)NCC#Cc2nn3c(N[C@@H]4CCN(C)C[C@@H]4F)cccc3c2CC(F)(F)F)cn1 [Compound 266, N-(3-(7-{[(3S,4R)-3-fluoro-1-methylpiperidin-4-yl]amino}-3-(2,2,2-trifluoroethyl)pyrazolo[1,5-a]pyridin-2-yl)prop-2-yn-1-yl)-6-methoxynicotinamide] |
| 10 nM | CN1CC[C@@H](Nc2cccc3c(CC(F)(F)F)c(C#CCNC(=O)c4cnn(CC5CC5)c4)nn23)[C@@H](F)C1 [Compound 268, 1-(cyclopropylmethyl)-N-[3-(7-{[(3S,4R)-3-fluoro-1-methylpiperidin-4-yl]amino}-3-(2,2,2-trifluoroethyl)pyrazolo[1,5-a]pyridin-2-yl)prop-2-yn-1-yl]-1H-pyrazole-4-carboxamide] |
| 8 nM | CC(C1CC1)n1cc(C(=O)NCC#Cc2nn3c(N[C@@H]4CCN(C)C[C@@H]4F)cccc3c2CC(F)(F)F)cn1 (stereo partly drawn) [Compound 269, 1-(1-cyclopropylethyl)-N-[3-(7-{[(3S,4R)-3-fluoro-1-methylpiperidin-4-yl]amino}-3-(2,2,2-trifluoroethyl)pyrazolo[1,5-a]pyridin-2-yl)prop-2-yn-1-yl]-1H-pyrazole-4-carboxamide] |
| 11 nM | Cc1cc(C(=O)NCC#Cc2nn3c(N[C@@H]4CCN(C)C[C@@H]4F)cccc3c2CC(F)(F)F)cn1C [Compound 273, N-[3-(7-{[(3S,4R)-3-fluoro-1-methylpiperidin-4-yl]amino}-3-(2,2,2-trifluoroethyl)pyrazolo[1,5-a]pyridin-2-yl)prop-2-yn-1-yl]-1,5-dimethyl-1H-pyrrole-3-carboxamide] |
| 19 nM | Cc1c(C(=O)NCC#Cc2nn3c(N[C@@H]4CCN(C)C[C@@H]4F)cccc3c2CC(F)(F)F)cnn1C1CC1 [Compound 282, 1-cyclopropyl-N-[3-(7-{[(3S,4R)-3-fluoro-1-methylpiperidin-4-yl]amino}-3-(2,2,2-trifluoroethyl)pyrazolo[1,5-a]pyridin-2-yl)prop-2-yn-1-yl]-5-methyl-1H-pyrazole-4-carboxamide] |
| 28 nM | CN1CC[C@@H](Nc2cccc3c(CC(F)(F)F)c(C#CCNC(=O)c4cnn(CC5CCCC5)c4N)nn23)[C@@H](F)C1 [Compound 285] |
| 8 nM | CC(C)Cn1ncc(C(=O)NCC#Cc2nn3c(N[C@@H]4CCN(C)C[C@@H]4F)cccc3c2CC(F)(F)F)c1N [Compound 286, 5-amino-N-[3-(7-{[(3S,4R)-3-fluoro-1-methylpiperidin-4-yl]amino}-3-(2,2,2-trifluoroethyl)pyrazolo[1,5-a]pyridin-2-yl)prop-2-yn-1-yl]-1-isobutyl-1H-pyrazole-4-carboxamide] |
| 23 nM | CN1CC[C@@H](Nc2cccc3c(CC(F)(F)F)c(C#CCNC(=O)c4cnn(CC(C)(C)C)c4N)nn23)[C@@H](F)C1 [Compound 287] |
| 69 nM | Cc1nn(C(C)(C)C)c(N)c1C(=O)NCC#Cc1nn2c(N[C@@H]3CCN(C)C[C@@H]3F)cccc2c1CC(F)(F)F [Compound 288, 5-amino-1-tert-butyl-N-[3-(7-{[(3S,4R)-3-fluoro-1-methylpiperidin-4-yl]amino}-3-(2,2,2-trifluoroethyl)pyrazolo[1,5-a]pyridin-2-yl)prop-2-yn-1-yl]-3-methyl-1H-pyrazole-4-carboxamide] |
| 39 nM | Cc1cc(N)c(C(=O)NCC#Cc2nn3c(N[C@@H]4CCN(C)C[C@@H]4F)cccc3c2CC(F)(F)F)cn1 [Compound 294, 4-amino-N-[3-(7-{[(3S,4R)-3-fluoro-1-methylpiperidin-4-yl]amino}-3-(2,2,2-trifluoroethyl)pyrazolo[1,5-a]pyridin-2-yl)prop-2-yn-1-yl]-6-methylnicotinamide] |
| 45 nM | Cc1ccc(C(=O)NCC#Cc2nn3c(N[C@@H]4CCN(C)C[C@@H]4F)cccc3c2CC(F)(F)F)c(N)n1 [Compound 295, 2-amino-N-[3-(7-{[(3S,4R)-3-fluoro-1-methylpiperidin-4-yl]amino}-3-(2,2,2-trifluoroethyl)pyrazolo[1,5-a]pyridin-2-yl)prop-2-yn-1-yl]-6-methylnicotinamide] |
